Patent US12083101B2, “Biaryl derivatives as YAP/TAZ-TEAD protein-protein interaction inhibitors” (Novartis AG, priority 2020, dated 2024)
Counter-ions that a name gives are not always drawn.

Target: Avi-humanTEAD4 217-434 / Cy5 labeled humanYAP 60-100 (Homo sapiens (Human), UniProt Q15561)
Assay: TR-FRET YAP-TEAD4 in-vitro biochemical assay
Type: binding
Conditions: 1 nM Avi-humanTEAD4 217-434, 20 nM Cy5-humanYAP 60-100, 1 h room temperature
Protocol: N-terminus Cy5 labeled humanYAP^60-100 (20 nM) was then added to this preparation. Compounds were dissolved at 10 mM in 100% DMSO and serial dilutions were made in 100% DMSO. The diluted compound solutions were incubated in white 384-well plates (Greiner Bio-One) for 1 h at room temperature with the above described mix. The final DMSO concentration present in the assay was 1%. […] The IC50 values were estimated by fitting the data by nonlinear fit regression (GraphPad Prism).

Chain of Avi-humanTEAD4 217-434 / Cy5 labeled humanYAP 60-100 (Q15561 217-434): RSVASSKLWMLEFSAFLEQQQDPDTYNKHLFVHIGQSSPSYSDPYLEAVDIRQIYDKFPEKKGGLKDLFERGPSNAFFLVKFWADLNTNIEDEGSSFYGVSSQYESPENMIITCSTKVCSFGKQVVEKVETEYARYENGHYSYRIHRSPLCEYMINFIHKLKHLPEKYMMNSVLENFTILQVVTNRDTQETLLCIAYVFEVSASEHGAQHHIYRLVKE

For `NC[C@]1(c2ccccc2)Oc2ccc(Cl)c(-c3c(C(N)=O)ccc(OC(F)F)c3F)c2[C@@H]1O` (atropisomer, axis not shown) [Example 87, 2-((2S,3S,4S)-2-(aminomethyl)-5-chloro-3-hydroxy-2-phenyl-2,3-dihydrobenzofuran-4-yl)-4-(difluoromethoxy)-3-fluorobenzamide], which IC50 is on record?
The IC50 was 30 nM.

With `NC[C@@]1(c2ccccc2)Cc2c(ccc(Cl)c2-c2c(Cl)cccc2C(N)=O)O1` (atropisomer, axis not shown) [Example 7, 2-((2S,4S)-2-(aminomethyl)-5-chloro-2-phenyl-2,3-dihydrobenzofuran-4-yl)-3-chlorobenzamide trifluoroacetate salt] as the molecule, how does the IC50 read?
The IC50 was 65 nM.

`COc1ccc(C(=O)NC2CC2)c(-c2c(Cl)ccc3c2C[C@@](CN)(c2ccccc2)O3)c1F` (atropisomer, axis not shown) [Example 23, 2-((2S,4S)-2-(aminomethyl)-5-chloro-2-phenyl-2,3-dihydrobenzofuran-4-yl)-N-cyclopropyl-3-fluoro-4-methoxybenzamide] was tested. Which IC50 did it give?
The IC50 was 9 nM.

With `NC[C@@]1(c2ccccc2)Cc2c(ncc(Cl)c2-c2c(F)cccc2C(N)=O)O1` (atropisomer, axis not shown) [Example 131, 2-((2S,4S)-2-(Aminomethyl)-5-chloro-2-phenyl-2,3-dihydrofuro[2,3-b]pyridin-4-yl)-3-fluorobenzamide] as the molecule, how does the IC50 read?
The IC50 was 1290 nM.

How did the IC50 turn out when `NC[C@]1(c2ccccc2)Cc2c(ccc(Cl)c2-c2c(F)cccc2C(N)=O)O1` (stereo in doubt) [Example 4b, 2-((2S*,4R*)-2-(aminomethyl)-5-chloro-2-phenyl-2,3-dihydrobenzofuran-4-yl)-3-fluorobenzamide] was run?
The IC50 was over 100000 nM.

Which IC50 does the source give for `NC[C@@]1(c2ccccc2)Cc2c(ccc(Cl)c2-c2c(C(N)=O)ccc(Cl)c2F)O1` (atropisomer, axis not shown) [Example 8, 2-((2S,4S)-2-(aminomethyl)-5-chloro-2-phenyl-2,3-dihydrobenzofuran-4-yl)-4-chloro-3-fluorobenzamide] here?
The IC50 was 4 nM.

With `C[C@H]1c2c(cc(F)c(Cl)c2-c2c(C(N)=O)ccc(OCCO)c2F)O[C@]1(CN)c1ccccc1` (atropisomer, axis not shown) [Example 107, 2-((2S,3S,4S)-2-(aminomethyl)-5-chloro-6-fluoro-3-methyl-2-phenyl-2,3-dihydrobenzofuran-4-yl)-3-fluoro-4-(2-hydroxyethoxy)benzamide] as the molecule, how does the IC50 read?
The IC50 was 2 nM.

Which IC50 does the source give for `NC[C@@]1(c2ccccc2)Cc2c(ccc(Cl)c2-c2c(C(N)=O)cnc(OC(F)F)c2F)O1` (atropisomer, axis not shown) [Example 19, 4-((2S,4S)-2-(Aminomethyl)-5-chloro-2-phenyl-2,3-dihydrobenzofuran-4-yl)-6-(difluoromethoxy)-5-fluoronicotinamide] here?
Its IC50 is 3 nM.

Which IC50 does the source give for `NC(=O)c1ccc(OC(F)F)c(F)c1-c1c(Cl)c(F)cc2c1C[C@@](CN[C@H]1C[C@H](F)C1)(c1ccccc1)O2` (atropisomer, axis not shown) [Example 82, 2-((2S,4S)-5-chloro-6-fluoro-2-(((trans-3-fluorocyclobutyl)amino)methyl)-2-phenyl-2,3-dihydrobenzofuran-4-yl)-4-(difluoromethoxy)-3-fluorobenzamide] here?
The IC50 was 119 nM.

Which IC50 does the source give for `CNC(=O)c1cnc(OCC(=O)O)c(F)c1-c1c(Cl)c(F)cc2c1C[C@](c1ccccc1)([C@@H]1CCCN1)O2` [Example 156, 2-((4-((2S,4S)-5-Chloro-6-fluoro-2-phenyl-2-((S)-pyrrolidin-2-yl)-2,3-dihydrobenzofuran-4-yl)-3-fluoro-5-(methylcarbamoyl)pyridin-2-yl)oxy)acetic acid] here?
The IC50 was 11 nM.

For `COc1ncc(C(N)=O)c(-c2c(Cl)c(F)cc3c2C[C@@](CN[C@H]2CC[C@@](C)(O)CC2)(c2ccccc2)O3)c1F` (atropisomer, axis not shown) [Example 66b, 4-((2S,4S)-5-chloro-6-fluoro-2-((((cis)-4-hydroxy-4-methylcyclohexyl)amino)methyl)-2-phenyl-2,3-dihydrobenzofuran-4-yl)-5-fluoro-6-methoxynicotinamide], which IC50 is on record?
The IC50 was 2 nM.

With `CN(C)C(=O)CN1CCC(NC[C@@]2(c3ccccc3)Cc3c(cc(F)c(Cl)c3-c3c(C(N)=O)ccc(OC(F)F)c3F)O2)CC1` (atropisomer, axis not shown) [Example 60, 2-((2S,4S)-5-chloro-2-(((1-(2-(dimethylamino)-2-oxoethyl)piperidin-4-yl)amino)methyl)-6-fluoro-2-phenyl-2,3-dihydrobenzofuran-4-yl)-4-(difluoromethoxy)-3-fluorobenzamide] as the molecule, how does the IC50 read?
The IC50 was 20 nM.

With `Fc1cc2c(c(-c3ccccc3)c1Cl)C[C@](c1ccccc1)([C@@H]1C[C@@H](F)CN1)O2` [Example 160, (2S,4R)-2-((S)-5-chloro-6-fluoro-2,4-diphenyl-2,3-dihydrobenzofuran-2-yl)-4-fluoropyrrolidine] as the molecule, how does the IC50 read?
The IC50 was 4400 nM.

For `C[C@]1(O)CC[C@H](NC[C@@]2(c3ccccc3)Cc3c(cc(F)c(Cl)c3-c3c(C(N)=O)ccc(OCc4ncccn4)c3F)O2)CC1` (atropisomer, axis not shown) [Example 71a, 2-((2S,4S)-5-chloro-6-fluoro-2-((((trans)-4-hydroxy-4-methylcyclohexyl)amino)methyl)-2-phenyl-2,3-dihydrobenzofuran-4-yl)-3-fluoro-4-(pyrimidin-2-ylmethoxy)benzamide], which IC50 is on record?
The IC50 was 2 nM.

With `CNC(=O)[C@H]1CC[C@@H](NC[C@@]2(c3ccccc3)Cc3c(ccc(Cl)c3-c3c(F)cccc3C(N)=O)O2)CC1` (relative stereo) [Example 139b, 2-((2S,4S)-5-chloro-2-((((cis)-4-(methylcarbamoyl)cyclohexyl)amino)methyl)-2-phenyl-2,3-dihydrobenzofuran-4-yl)-3-fluorobenzamide] as the molecule, how does the IC50 read?
Its IC50 is 11 nM.

For `NC(=O)c1ccc(OC(F)F)c(F)c1-c1c(Cl)c(F)cc2c1C[C@@](CNC1CC3(CC(O)C3)C1)(c1ccccc1)O2` (single isomer, unassigned) [Example 85b], which IC50 is on record?
The IC50 was 7 nM.

How did the IC50 turn out when `NC[C@@]1(c2ccccc2)Cc2c(ccc(Cl)c2-c2c(F)cccc2C(N)=O)O1` (stereo in doubt) [Example 4a, 2-((2S*,4S*)-2-(Aminomethyl)-5-chloro-2-phenyl-2,3-dihydrobenzofuran-4-yl)-3-fluorobenzamide] was run?
The IC50 was 34 nM.

How did the IC50 turn out when `NC(=O)c1ccc(OC(F)F)c(F)c1-c1c(Cl)c(F)cc2c1C[C@@](CNC1CCC3(CCC(=O)N3)CC1)(c1ccccc1)O2` (single isomer, unassigned) [Example 59a] was run?
Its IC50 is 6 nM.

For `NC(=O)c1ccc(OC(F)F)c(F)c1-c1c(Cl)c(F)cc2c1C[C@@](CNC1CCC(O)(CF)CC1)(c1ccccc1)O2` (single isomer, unassigned) [Example 55b], which IC50 is on record?
Its IC50 is 2 nM.

For `N#Cc1ccc2c(c1-c1ccccc1)C[C@@](CN[C@H]1CC[C@H](O)CC1)(c1ccccc1)O2` [Example 130, (S)-2-((((trans)-4-Hydroxycyclohexyl)amino)methyl)-2,4-diphenyl-2,3-dihydrobenzofuran-5-carbonitrile], which IC50 is on record?
The IC50 was 797 nM.

How did the IC50 turn out when `NC(=O)c1ccc(OC(F)F)c(F)c1-c1c(Cl)c(F)cc2c1C[C@@](CNC1CCC(O)(CF)CC1)(c1ccccc1)O2` (single isomer, unassigned) [Example 55a] was run?
Its IC50 is under 1 nM.

For `NC(=O)c1ccc(OC(F)F)c(F)c1-c1c(Cl)c(F)cc2c1C[C@@](CNC1CCC(CO)CC1)(c1ccccc1)O2` (single isomer, unassigned) [Example 61b], which IC50 is on record?
The IC50 was 10 nM.

How did the IC50 turn out when `CO[C@H]1CC[C@H](NC[C@]2(c3ccccc3)Oc3cc(F)c(Cl)c(-c4c(C(N)=O)ccc(OC(F)F)c4F)c3[C@@H]2O)CC1` (relative stereo) [Example 136b, 2-((2S,3S,4S)-5-chloro-6-fluoro-3-hydroxy-2-((((trans)-4-methoxycyclohexyl)amino)methyl)-2-phenyl-2,3-dihydrobenzofuran-4-yl)-4-(difluoromethoxy)-3-fluorobenzamide] was run?
The IC50 was 7 nM.

For `NC[C@@]1(c2ccccc2)Cc2c(cc(F)c(Cl)c2-c2c(C(N)=O)ccc(OC(F)(F)CO)c2F)O1` (atropisomer, axis not shown) [Example 36, 2-((2S,4S)-2-(aminomethyl)-5-chloro-6-fluoro-2-phenyl-2,3-dihydrobenzofuran-4-yl)-4-(1,1-difluoro-2-hydroxyethoxy)-3-fluorobenzamide], which IC50 is on record?
The IC50 was 10 nM.

For `CCc1ccc(C(N)=O)c(-c2c(Cl)c(F)cc3c2C[C@@](CN[C@H]2CC[C@@](C)(O)CC2)(c2ccccc2)O3)c1F` (atropisomer, axis not shown) [Example 68b, 2-((2S,4S)-5-chloro-6-fluoro-2-((((cis)-4-hydroxy-4-methylcyclohexyl)amino)methyl)-2-phenyl-2,3-dihydrobenzofuran-4-yl)-4-ethyl-3-fluorobenzamide], which IC50 is on record?
Its IC50 is 12 nM.

How did the IC50 turn out when `NCCOc1cccc(F)c1-c1c(Cl)ccc2c1C[C@@](CN)(c1ccccc1)O2` [Example 3a, 2-(2-((2S,4S)-2-(Aminomethyl)-5-chloro-2-phenyl-2,3-dihydrobenzofuran-4-yl)-3-fluorophenoxy)ethanamine] was run?
Its IC50 is 16 nM.

For `NC(=O)c1ccc(OC(F)F)c(F)c1-c1c(Cl)c(F)cc2c1C[C@@](CNC1CC3(CC(O)C3)C1)(c1ccccc1)O2` (stereo partly drawn) [Example 85a, 2-((2S,4S)-5-Chloro-6-fluoro-2-(((6-hydroxyspiro[3.3]heptan-2-yl)amino)methyl)-2-phenyl-2,3-dihydrobenzofuran-4-yl)-4-(difluoromethoxy)-3-fluorobenzamide], which IC50 is on record?
The IC50 was 4 nM.

For `C[C@H]1c2c(cc(F)c(Cl)c2-c2c(C(N)=O)ccc(OC(F)F)c2F)O[C@]1(CN)c1ccccc1` (atropisomer, axis not shown) [Example 105, 2-((2S,3S,4S)-2-(Aminomethyl)-5-chloro-6-fluoro-3-methyl-2-phenyl-2,3-dihydrobenzofuran-4-yl)-4-(difluoromethoxy)-3-fluorobenzamide], which IC50 is on record?
The IC50 was 2 nM.
